Reference: patent US20190195864A1, “CELL-FREE SENSOR SYSTEMS” (priority 2016, published 2019)

What was measured:
cells = assay: cell-based dose response of TetR sensors to nootkatone (FIG. 10); conditions: cell-based sensor assay
Description: This is particularly useful in situations when, inter alia, a target molecule is toxic to cells in vivo and therefore a sensor to conduct cell-based detection is impractical. […] Accordingly, the detection of this target molecule would benefit from the cell-free methods described herein.

tetR = target: T1, tetR (Escherichia coli, UniProt P04483); assay: T7 in vitro transcription from tetR-controlled reporter plasmid, ATC titration; assay type: biochemical; conditions: 100 nM tetR and 100 nM reporter plasmid; ATC titrated 2 uM to 0 uM; 37° C., 4 hours; agarose gel readout
T1 construct: The tetR gene was cloned into the pET28a(+) E. coli expression plasmid; 6xHis (C); made in house; host or cells: E. coli BL21(DE3), pET28a(+)
Method: Using a fixed amount of tetR and plasmid, 100 nM each, T7 transcription reactions were set up as described above with the inclusion of a titrating amount of anhydrotetracycline (ATC), the native ligand for tetR. The ATC titration ranged from 2 uM to 0 uM. The IVT transcripts were analyzed by gel as described above. […] This titratable response is a requirement when working with engineered sensors cell-free to enrich a population for those members with improved ligand binding function in the pool.

T1 sequence (P04483 whole entry): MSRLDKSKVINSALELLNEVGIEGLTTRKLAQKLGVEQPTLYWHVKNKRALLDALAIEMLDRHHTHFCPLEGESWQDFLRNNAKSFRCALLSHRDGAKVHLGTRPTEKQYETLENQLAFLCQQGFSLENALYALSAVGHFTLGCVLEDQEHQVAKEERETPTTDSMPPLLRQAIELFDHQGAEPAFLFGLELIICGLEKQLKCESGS

SMILES	nootkatone concentration after which there is a toxic effect and the cells start to die (cells)	ATC concentration giving a strong RNA band similar to no tetR (full derepression of transcription) (tetR)
C=C(C)[C@@H]1CCC2=CC(=O)C[C@@H](C)[C@]2(C)C1 [nootkatone]	> 0.5 mg/mL	
Cc1c2c(c(O)c3c(O)cccc13)C(=O)[C@]1(O)C(=O)C(C(N)=O)=C(O)[C@@H](N(C)C)[C@@H]1C2 [ATC, anhydrotetracycline]		200 nM
